Test results reported in patent publication US5559141A, “Selective aromatase inhibiting 4(5)-imidazoles” (Orion-yhtyma Oy, priority 1991, dated 1996).
pIC50: −log10 of the molar value.

Columns and labels:
desmolase = assay: inhibition of cholesterol side chain cleavage (SCC) activity (desmolase); type: biochemical; settings: mitochondrial fraction from human placenta or bovine adrenals, 37° C., 30 min; read-out: DESMOLASE IC-50
Experimental: Incubations were carried out in 1,5 ml Eppendorf plastic tubes, and an Eppendorf shaker, centrifuge and incubator were used as a unit. […] Controls contained all the above substances but the enzyme preparation was inactivated prior to the incubation by the addition of 900 μof methanol. The mitochondrial fraction (1 mg protein) from human placenta or bovine adrenals was used as a source of enzyme. After 30 min incubation at 37° C., the reaction was terminated by the addition of 900 μl of methanol; 1500 dpm of marker ^14 C-4-pregnenolone was added to each incubate and the tubes were vigorously shaken. […] The column was washed with one ml of 75% methanol and then with 3 ml of 80% methanol. The 80% methanol eluate was run into the counting vial and 10 ml of scintillation liquid was added. Radioactivity was counted using a double-label program on a liquid scintillation counter (LKB RackBeta). Typical activities for placental and bovine adrenal enzyme preparation were 0,5-3 and 50-100 pmol pregnenolone formed/mg protein/min,respectively.
In inhibition experiments, the substance (final concentration range from 1 to 1000 μM) was added into incubation mixture in a volume of 10-20 μl, usually as methanol or ethanol solution. The same volume of the solute was added into control incubation vial.

[1] = acute toxicity, LD50, oral, mice; settings: mouse, in vivo, young adult female NMRI-Stmin mice
Experimental: Acute toxicity, LD50, was determined by using young adult female mice of NMRI-Stmin. The administration of the test compounds was oral.

human aromatase = molecular target: T1, human aromatase (Homo sapiens, UniProt P11511); assay: in vitro inhibition of aromatase (human placental microsomes, 3H2O release); type: biochemical; settings: 37° C., 40 min, read-out: AROMATASE IC-50 (converted)
T1 construct: The enzyme was prepared from human placenta, which is rich of the enzyme; from tissue; host or cells: human placenta, microsomal fraction (100000×g precipitate), not further purified
T1 sequence (P11511 1-503): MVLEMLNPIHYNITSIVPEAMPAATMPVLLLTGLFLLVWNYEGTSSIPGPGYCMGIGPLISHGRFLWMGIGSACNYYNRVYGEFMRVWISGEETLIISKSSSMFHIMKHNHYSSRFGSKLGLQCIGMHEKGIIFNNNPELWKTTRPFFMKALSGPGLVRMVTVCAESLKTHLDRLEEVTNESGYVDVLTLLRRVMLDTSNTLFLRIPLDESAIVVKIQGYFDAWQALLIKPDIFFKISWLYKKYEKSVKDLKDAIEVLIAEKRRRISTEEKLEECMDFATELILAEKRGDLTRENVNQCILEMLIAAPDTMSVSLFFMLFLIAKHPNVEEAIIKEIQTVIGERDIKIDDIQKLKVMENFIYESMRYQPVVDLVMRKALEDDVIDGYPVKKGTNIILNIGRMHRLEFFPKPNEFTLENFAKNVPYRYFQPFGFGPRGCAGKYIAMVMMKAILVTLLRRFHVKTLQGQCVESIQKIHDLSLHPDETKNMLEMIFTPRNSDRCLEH
Experimental: Human aromatase enzyme was used. The enzyme was prepared from human placenta, which is rich of the enzyme. Microsomal fraction (100000×g precipitate) was prepared by centrifugation. The enzyme preparation was used without further purification. […] The incubation was camed out at 37° C. for 40 min. Aromatization of 1,2[^3 H]-androstene-3,17-dione results in the production of ^3 H2 O. The tritiated water and the tritiated substrate are easily separated by a Sep-Pak™ minicolumn, which absorbs the steroid but allows free water elution. Radioactivity was counted by a liquid scintillation counter. Aromatase inhibition was evaluated by comparing the ^3 H2 O-radioactivity of inhibitor treated samples to controls containing no inhibitor. IC-50 values were calculated as concentrations which inhibited the enzyme activity 50%.

Structure (SMILES) | pIC50 (desmolase) | LD50 [1] [mg/kg] | IC50 (human aromatase) [µM]
N#Cc1ccc(C(=CCCc2ccc(F)cc2)c2c[nH]cn2)cc1 (single isomer, unassigned; isomer a) [Compound 4b, 4-[1-(4-cyanophenyl)-4-(4-fluorophenyl)-1-butenyl]-1H-imidazole, isomer a] | 4.48 | – | –
N#Cc1ccc(C(=CCc2ccc(F)cc2)c2c[nH]cn2)cc1 (single isomer, unassigned; isomer a) [Compound 6b, 4-[1-(4-cyanophenyl)-3-(4-fluorophenyl)-1-propenyl]-1H-imidazole, isomer a] | 4.44 | > 400 | –
N#Cc1ccc(C(=CCCc2ccc(F)cc2)c2c[nH]cn2)cc1 (single isomer, unassigned; isomer b) [Compound 5b, 4-[1-(4-cyanophenyl)-4-(4-fluorophenyl)-1-butenyl]-1H-imidazole, isomer b] | < 3.00 | – | –
N#Cc1ccc(C(CCc2c[nH]cn2)c2ccccc2)cc1 (stereo not shown) [Compound 1a, 4-[3-(4-cyanophenyl)-3-phenylpropyl]-1H-imidazole] | 4.85 | – | –
N#Cc1ccc(C(CCCc2ccccc2)c2c[nH]cn2)cc1 (stereo not shown) [Compound 1b, 4-[1-(4-cyanophenyl)-4-phenylbutyl]-1H-imidazole] | 4.92 | – | –
N#Cc1ccc(C(CCc2c[nH]cn2)c2ccc(C#N)cc2)cc1 [Compound 2a, 4-[3,3-bis(4-cyanophenyl)propyl]-1H-imidazole] | 4.44 | – | –
N#Cc1ccc(C(CCCc2ccc(F)cc2)c2c[nH]cn2)cc1 (stereo not shown) [Compound 2b, 4-[1-(4-cyanophenyl)-4-(4-fluorophenyl)butyl]-1H-imidazole] | 4.70 | – | –
N#Cc1ccc(C(CCc2c[nH]cn2)c2ccc(F)cc2)cc1 (stereo not shown) [Compound 3a, 4-[3-(4-cyanophenyl)-3-(4-fluorophenyl)propyl]-1H-imidazole] | 4.37 | 210 | –
N#Cc1ccc(C(=CCCc2ccc(F)cc2)c2c[nH]cn2)cc1 [Compound 3b, 4-[1-(4-cyanophenyl)-4-(4-fluorophenyl)-1-butenyl)-1H-imidazole] | 4.59 | – | –
N#Cc1ccc(C(=CCc2c[nH]cn2)c2ccc(F)cc2)cc1 [Compound 4a, 4-[3-(4-cyanophenyl)-3-(4-fluorophenyl)-2-propenyl]-1H-imidazole] | 4.21 | – | 0.65
N#Cc1ccc(C(=CCc2cncn2Cc2ccccc2)c2ccc(C#N)cc2)cc1 [Compound 5a, 1-benzyl-5-[3,3-bis(4-cyanophenyl)-2-propenyl]-1H-imidazole] | – | – | 3.2
N#Cc1ccc(C(CCCc2c[nH]cn2)c2ccc(C#N)cc2)cc1 [Compound 6a, 4-[4,4-bis(4-cyanophenyl)butyl]-1H-imidazole] | 4.33 | – | –
N#Cc1ccc(C(CCCc2cncn2Cc2ccccc2)c2ccc(C#N)cc2)cc1 [Compound 7a, 1-benzyl-5-[4,4-bis(4-cyanophenyl)butyl]-1H-imidazole] | 4.66 | – | 5
N#Cc1ccc(C(=CCc2c[nH]cn2)c2ccc(C#N)cc2)cc1 [Compound 8a, 4-[3,3-bis(4-cyanophenyl)-2-propenyl]-1H-imidazole] | 4.48 | – | 0.97
N#Cc1ccc(CC=C(c2ccc(F)cc2)c2c[nH]cn2)cc1 [Compound 8b, 4-[3-(4-cyanophenyl)-1-(4-fluorophenyl)-1-propenyl]-1H-imidazole] | – | – | 1
N#Cc1ccc(C(CCc2c[nH]cn2)c2ccc(C(F)(F)F)cc2)cc1 (stereo not shown) [Compound 9a, 4-[3-(4-cyanophenyl)-3-(4-trifluoromethylphenyl)propyl]-1H-imidazole] | 4.19 | – | –
COc1ccc(C(CCc2c[nH]cn2)c2ccc(C#N)cc2)cc1 (stereo not shown) [Compound 10a, 4-[3-(4-cyanophenyl)-3-(4-methoxyphenyl)propyl]-1H-imidazole] | 4.48 | – | –
